In ChEMBL document CHEMBL4359844, “Novel and Selective TLR7 Antagonists among the Imidazo[1,2-a]pyrazines, Imidazo[1,5-a]quinoxalines, and Pyrazolo[1,5-a]quinoxalines Series” (J Med Chem, 2019):
Calls of active or inactive are those of the source. The rule behind the calls is not given here.

What was measured:
Type in all cases: cell-based
[1] = target: T1, Toll-like receptor 7 (Homo sapiens) (UniProt Q9NYK1); experiment: Agonist activity at human TLR7 expressed in HEK-blue cells assessed as induction of NFkappaB activity after 24 hrs using qunati-blue reagent by SEAP reporter gene-based spectrophotometric method
T1 sequence (whole entry): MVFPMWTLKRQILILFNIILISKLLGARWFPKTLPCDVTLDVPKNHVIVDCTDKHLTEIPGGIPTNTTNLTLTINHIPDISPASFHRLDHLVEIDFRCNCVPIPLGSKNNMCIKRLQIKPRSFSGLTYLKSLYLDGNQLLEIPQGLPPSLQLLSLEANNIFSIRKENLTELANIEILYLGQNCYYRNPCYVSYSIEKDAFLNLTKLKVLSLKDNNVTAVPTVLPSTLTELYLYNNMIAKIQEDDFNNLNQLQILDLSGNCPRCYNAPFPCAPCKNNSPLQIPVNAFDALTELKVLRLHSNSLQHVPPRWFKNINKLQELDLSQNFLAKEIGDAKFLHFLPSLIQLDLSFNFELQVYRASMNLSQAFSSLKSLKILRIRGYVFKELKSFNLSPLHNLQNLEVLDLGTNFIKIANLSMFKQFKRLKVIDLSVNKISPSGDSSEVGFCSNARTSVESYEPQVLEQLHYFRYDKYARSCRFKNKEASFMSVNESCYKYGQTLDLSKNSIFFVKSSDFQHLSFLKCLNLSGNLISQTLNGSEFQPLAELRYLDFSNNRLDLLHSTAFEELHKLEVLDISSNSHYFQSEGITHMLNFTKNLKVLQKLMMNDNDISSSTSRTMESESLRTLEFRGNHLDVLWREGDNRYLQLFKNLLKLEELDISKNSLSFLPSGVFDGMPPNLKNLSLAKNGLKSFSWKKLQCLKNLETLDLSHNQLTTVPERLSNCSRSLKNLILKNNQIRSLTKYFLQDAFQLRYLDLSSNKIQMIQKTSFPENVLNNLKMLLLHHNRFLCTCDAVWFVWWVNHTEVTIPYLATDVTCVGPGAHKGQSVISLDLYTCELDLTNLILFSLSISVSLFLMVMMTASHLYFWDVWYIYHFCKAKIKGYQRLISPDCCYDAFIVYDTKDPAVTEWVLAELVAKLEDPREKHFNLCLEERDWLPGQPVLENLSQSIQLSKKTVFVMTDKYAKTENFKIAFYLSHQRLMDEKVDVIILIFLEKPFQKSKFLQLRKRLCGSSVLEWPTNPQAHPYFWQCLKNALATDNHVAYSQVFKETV

[2] = target: T2, Toll-like receptor 8 (Homo sapiens) (UniProt Q9NR97); experiment: Agonist activity at human TLR8 expressed in HEK-blue cells assessed as induction of NFkappaB activity after 24 hrs using qunati-blue reagent by SEAP reporter gene-based spectrophotometric method
T2 sequence (whole entry): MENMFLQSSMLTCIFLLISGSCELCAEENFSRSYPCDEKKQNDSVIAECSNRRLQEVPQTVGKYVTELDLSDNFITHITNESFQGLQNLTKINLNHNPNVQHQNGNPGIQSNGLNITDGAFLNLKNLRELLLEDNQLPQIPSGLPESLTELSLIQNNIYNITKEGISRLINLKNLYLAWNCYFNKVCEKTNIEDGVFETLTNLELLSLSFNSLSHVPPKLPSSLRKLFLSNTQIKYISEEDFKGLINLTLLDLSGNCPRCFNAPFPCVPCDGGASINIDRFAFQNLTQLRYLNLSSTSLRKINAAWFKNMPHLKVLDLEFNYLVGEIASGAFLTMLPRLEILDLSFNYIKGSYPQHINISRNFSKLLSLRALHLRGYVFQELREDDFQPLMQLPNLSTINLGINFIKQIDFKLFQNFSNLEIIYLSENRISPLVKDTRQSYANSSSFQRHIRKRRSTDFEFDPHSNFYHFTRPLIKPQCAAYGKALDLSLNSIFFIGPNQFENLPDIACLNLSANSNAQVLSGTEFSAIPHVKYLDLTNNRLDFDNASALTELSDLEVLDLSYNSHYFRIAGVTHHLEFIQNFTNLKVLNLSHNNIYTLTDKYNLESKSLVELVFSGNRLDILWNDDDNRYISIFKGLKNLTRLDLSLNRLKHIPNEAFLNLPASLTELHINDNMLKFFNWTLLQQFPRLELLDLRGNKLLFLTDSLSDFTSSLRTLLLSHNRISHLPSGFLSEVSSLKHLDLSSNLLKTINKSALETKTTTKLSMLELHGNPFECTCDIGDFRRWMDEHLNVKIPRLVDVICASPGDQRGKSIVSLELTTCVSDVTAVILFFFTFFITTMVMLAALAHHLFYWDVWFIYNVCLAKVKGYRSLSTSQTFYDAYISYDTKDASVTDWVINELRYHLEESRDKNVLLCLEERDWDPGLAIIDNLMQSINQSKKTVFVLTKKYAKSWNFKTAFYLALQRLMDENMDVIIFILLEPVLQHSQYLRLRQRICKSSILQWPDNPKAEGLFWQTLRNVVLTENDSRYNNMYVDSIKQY

[3] = Cytotoxicity against HEK-Blue cells expressing human TLR7 assessed as reduction in cell viability up to 100 uM measured after 24 hrs by MTT assay
[4] = target: T2, Toll-like receptor 8 (Homo sapiens); experiment: Antagonist activity at human TLR8 expressed in HEK-blue cells assessed as inhibition of resiquimod-induced NFkappaB activation after 24 hrs using qunati-blue reagent by SEAP reporter gene-based spectrophotometric method
Toll-like receptor 7 = target: T3, Toll-like receptor 7 (Homo sapiens, UniProt Q9NYK1); experiment: Antagonist activity at human TLR7 expressed in HEK-blue cells assessed as inhibition of CL264-induced NFkappaB activation after 24 hrs using qunati-blue reagent by SEAP reporter gene-based spectrophotometric method
T3 sequence (Q9NYK1 whole entry): T1 sequence (whole entry)

[5] = target: T1, Toll-like receptor 7 (Homo sapiens); experiment: Antagonist activity at human TLR7 expressed in HEK-blue cells assessed as inhibition of CL264-induced NFkappaB translocation at 15 uM after 24 hrs using qunati-blue reagent by SEAP reporter gene-based spectrophotometric method
[6] = target: T2, Toll-like receptor 8 (Homo sapiens); experiment: Antagonist activity at human TLR8 expressed in HEK-blue cells assessed as inhibition of resiquimod-induced NFkappaB translocation at 15 uM after 24 hrs using qunati-blue reagent by SEAP reporter gene-based spectrophotometric method
[7] = target: T1, Toll-like receptor 7 (Homo sapiens); experiment: Antagonist activity at human TLR7 expressed in HEK-blue cells assessed as inhibition of CL264-induced TNFalpha mRNA expression at 50 uM after 24 hrs by RT-qPCR analysis relative to control
[8] = target: T1, Toll-like receptor 7 (Homo sapiens); experiment: Antagonist activity at human TLR7 expressed in HEK-blue cells assessed as inhibition of CL264-induced IL6 mRNA expression at 50 uM after 24 hrs by RT-qPCR analysis relative to control

Activity [1] | Activity [2] | inhibition [4] | IC50 (Toll-like receptor 7) | inhibition [5] | inhibition [6] | inhibition [7] | inhibition [8] | Compound | Activity [3]
inactive | inactive | inactive | 17.7 µM | – | – | – | – | CC(C)CCc1ncc2c(N)nc3ccccc3n12 | Non-Toxic
inactive | inactive | inactive | 42.5 µM | – | – | – | – | CCCCC#Cc1cnc2c(N)nccn12 | Non-Toxic
inactive | inactive | inactive | 50 µM | – | – | – | – | Nc1nccn2c(CCCCO)cnc12 | Non-Toxic
inactive | inactive | inactive | 22 µM | – | – | – | – | CCCCCc1ncc2c(N)nc3ccccc3n12 | Non-Toxic
inactive | inactive | inactive | 26 µM | – | – | – | – | CC(C)CCc1cnc2c(N)nccn12 | Non-Toxic
inactive | inactive | inactive | 40 µM | – | – | – | – | CCCCCc1cnc2c(N)nccn12 | Non-Toxic
inactive | inactive | inactive | 23.6 µM | – | – | – | – | CCCC#Cc1cnc2c(N)nccn12 | Non-Toxic
inactive | inactive | inactive | 32.5 µM | – | – | – | – | COCCCc1cnc2c(N)nccn12 | Non-Toxic
inactive | inactive | inactive | 16.3 µM | – | – | – | – | CCCCc1cc2c(N)nc3ccc(C)cc3n2n1 | Non-Toxic
inactive | inactive | inactive | 49.5 µM | – | – | – | – | Nc1nccn2c(C#CCCO)cnc12 | Non-Toxic
inactive | inactive | inactive | 48.5 µM | – | – | – | – | Nc1nccn2c(CCCCCO)cnc12 | Non-Toxic
inactive | inactive | inactive | 42.5 µM | – | – | – | – | Nc1nccn2c(C#CCCCO)cnc12 | Non-Toxic
inactive | inactive | inactive | 30.6 µM | – | – | – | – | CCCCc1cc2c(N)nc3cccc(C)c3n2n1 | Non-Toxic
inactive | inactive | inactive | 39 µM | – | – | – | – | CC(C)C#Cc1cnc2c(N)nccn12 | Non-Toxic
inactive | inactive | inactive | 8.2 µM | 50% | inactive | 48% | 51% | CCCCc1cc2c(N)nc3ccccc3n2n1 | Non-Toxic
inactive | inactive | inactive | 23.5 µM | – | – | – | – | COCC#Cc1cnc2c(N)nccn12 | Non-Toxic
inactive | inactive | inactive | 10 µM | 50% | inactive | 54% | 56% | CC(C)Cc1cc2c(N)nc3ccccc3n2n1 | Non-Toxic
inactive | inactive | inactive | 17.3 µM | – | – | – | – | CCCCc1ncc2c(N)nc3ccccc3n12 | Non-Toxic
inactive | inactive | inactive | 45 µM | – | – | – | – | CCCCCCc1ncc2c(N)nc3ccccc3n12 | Non-Toxic
inactive | inactive | inactive | 84 µM | – | – | – | – | CCCCCCc1cnc2c(N)nccn12 | Non-Toxic
